Measured values from patent US20150297591A1, “METHODS OF TREATING PULMONARY FIBROSIS” (Duke University, priority 2012, published 2015).

Tests used:
[1] = following RT; by decreasing free radical injury; cited from earlier work
C57BL/6 mice = assay: Radiation fibrosis model in C57BL/6 mice (15 Gy thoracic RT), SMA immunostaining of lung; type: in vivo, mouse; settings: C57BL/6 lungs 20 wks post-15 Gy; 77427 IP twice weekly for 20 weeks; vs RT+PBS
Source text: Our first investigation tested the hypothesis that GRP contributes to RTP using an established mouse model of radiation fibrosis in C57BL/6 mice, which are prone to fibrosis. Following exposure to high-dose thoracic radiation (15 Gy), we treated mice intraperitoneally (IP) with either PBS or GRP blockade by using small molecule 77427. We quantified results of immunohistochemistry by using quantitative image analysis with ImageJ to determine whether GRP contributes to RT-induced inflammatory responses and/or fibrosis, specifically including assessment of active TGFβsignaling^7. As noted above, the first investigation (FIGS. 1 and 2) tested the hypothesis that GRP contributes to RTP using an established mouse model of radiation fibrosis in C57BL/6 mice. Following exposure to high-dose thoracic radiation (15 Gy), we treated mice intraperitoneally (IP) with either PBS or GRP blockade by using small molecule 77427. We quantified results of immunohistochemistry by using quantitative image analysis with ImageJ to determine whether GRP contributes to RT-induced inflammatory responses and/or fibrosis, specifically including assessment of active TGFβ signaling^7. In FIG. 1B, note that there is extensive immunostaining for myofibroblasts in the alveolar walls (arrows) in mice exposed to RT 20 weeks earlier and given only PBS. […]

C57L/J (L/J) mice [2] = assay: C57L/J model, toluidine blue staining for mast cells in lung sections; type: in vivo, mouse; settings: 15 weeks post-RT, single dose 24 h post-RT
Experimental: (§1) In a second series of experiments, C57L/J (L/J) mice were treated with 15 Gy of thoracic radiation. L/J mice are exquisitely sensitive to even low doses of RT, and rapidly develop both pneumonitis and fibrosis. Groups of L/J mice were injected intraperitoneally with PBS, 77427 or 2A11, given as a single dose (20 nmole per mouse) at 24 hours post-RT.
There were no detectable subpleural or interstitial mast cells in any sham controls, nor in any lungs at 10 weeks post-RT. At 15 weeks post-RT there was a dramatic accumulation of mast cells subpleurally (black arrows) and in the alveolar interstitium (red arrows). These were most abundant in mice treated with RT+PBS (FIG. 8A), with a reduction by over 50% in mice give 77427 (FIG. 8B). Total numbers of subpleural mast cells have been quantified for all of the lung tissue on each slide and will be normalized for the length of pleura present.

C57L/J (L/J) mice [3] = assay: C57L/J model, Masson's trichrome staining for collagen in alveoli; type: in vivo, mouse
Experimental: as §1
In normal, Sham-irradiated lung (FIG. 5A), there are only traces of green collagen staining in the alveolar walls (arrows). In contrast, 15 weeks post-RT, early collagen deposition is widespread throughout the alveolar walls.
We quantified the area of green trichrome staining in the trichrome-stained slides (including those shown in FIG. 5), using ImageJ, normalized for the total area of alveolar tissue in the same photomicrograph, similar to the analysis used for FIG. 4.

C57L/J (L/J) mice [4] = assay: C57L/J model of radiation pneumonitis (15 Gy thoracic RT), SMA immunostaining of lung; type: in vivo, mouse
Experimental: as §1
It was recently observed by Zelcko Vujaskovic et al that C57L/J (L/J) mice have radiation sensitivity very similar to humans^19, making the L/J model of radiation-pneumonitis most clinically relevant. Using this L/J model, we treated mice IP with a single dose of 77427 (10 nmol per mouse) given IP at 24 hours post-RT. At 15 weeks later, we observed early evidence of pulmonary fibrosis that was abrogated by the single dose of 77427 (FIG. 3). […] Therefore, we have included a claim that GRP blockade may be a treatment to prevent, arrest, or reverse pulmonary arteriopathy leading to pulmonary hypertension, another serious and poorly understood medical condition that is now treated symptomatically.

C57L/J (L/J) mice [5] = assay: C57L/J model, hydroxyproline assay on whole mouse lungs (total lung collagen); type: in vivo; settings: 15 weeks post-RT, single dose, initial assay results
Experimental: as §1
As a second measure of pulmonary collagen levels, we carried out the hydroxyproline assay on whole mouse lungs from the same groups of mice as given in the legend to FIG. 3. There is a trend toward increased collagen at 15 weeks post-RT, which is confounded to some extent by the presence of collagen in connective tissue of blood vessels and airways in normal lung. Additional samples are being assayed in the near future.

SMILES	severity of RTP [1]	interstitial SMA staining (myofibroblasts in alveolar walls), early indicator of radiation fibrosis (C57BL/6 mice)	reduction of mast cells (subpleural and alveolar interstitium) versus RT+PBS (C57L/J (L/J) mice [2])	subpleural mast cells (toluidine blue staining) (C57L/J (L/J) mice [2])	trichrome (collagen) levels in the alveoli (C57L/J (L/J) mice [3]; C57L/J lung 15 weeks post-15 Gy, single dose 24 h post-RT)	alveolar collagen deposition (quantified trichrome area normalized for alveolar tissue area) (C57L/J (L/J) mice [3]; C57L/J, 15 weeks post-high dose RT, RT+PBS vs RT+77427 P<0.001)	SMA+ myofibroblasts in small distal blood vessels (C57L/J (L/J) mice [4]; C57L/J lung 15 wks post-15 Gy, single dose IP 24 h post-RT)	early evidence of pulmonary fibrosis (SMA+ cells) (C57L/J (L/J) mice [4]; C57L/J, 15 weeks post-RT, single dose 10 nmol per mouse IP at 24 hours post-RT)	hydroxyproline content of whole lung (total lung collagen) (C57L/J (L/J) mice [5])
CCN1C=CC=C/C1=C1/C2=NC(=C(c3cccc[n+]3CC)C3=NC(=C(c4cccc[n+]4CC)c4ccc([n-]4)C(c4cccc[n+]4CC)=C4C=CC1=N4)C=C3)C=C2.[Cl-].[Cl-].[Cl-].[Cl-].[Cl-].[Mn+3] [AEOL10113]	can reduce the severity of RTP								
Nc1nc(Cl)cc(NCCO)n1 [compound 77427]		abrogates this interstitial SMA staining	over 50%	reduced	reduced trichrome levels in the alveoli to near baseline levels	abrogates alveolar collagen deposition	greatly reduces SMA+ myofibroblasts in small distal blood vessels	abrogated	do not have elevated hydroxyproline content
